Legend:
[1] = Effect on Wnt signaling pathway in human SW480 cells harbouring TCF/LEF luciferase reporter gene and SP5-Luc reporter gene incubated for 36 to 48 hrs by luminescence assay; assay type: cell-based
[2] = Inhibition of IL1-beta induced MMP3 expression levels in human chondrocytes assessed as MMP3 levels incubated for 2hrs followed by IL1-beta stimulation and measured after overnight incubation by LANCE assay relative to control; assay type: functional, Chondrocyte
[3] = Inhibition of IL1-beta induced MMP3 expression levels in human chondrocytes assessed as MMP3 levels incubated for 2hrs followed by IL1-beta stimulation and measured after overnight incubation by LANCE assay; assay type: functional, cell-based; settings: Chondrocyte
[4] = molecular target: Dual specificity protein kinase CLK3 (Homo sapiens, UniProt P49761); test: Inhibition of recombinant CLK3 (unknown origin) using Ser/Thr 18 peptide as substrate incubated for 1 hr in presence of ATP by FRET assay
[5] = molecular target: Dual specificity tyrosine-phosphorylation-regulated kinase 1A (Homo sapiens, UniProt Q13627); test: Inhibition of recombinant DYRK1A (unknown origin) using Ser/Thr 18 peptide as substrate incubated for 1 hr in presence of ATP by FRET assay
[6] = Induction of chondrogenesis in human MSC assessed as incubated for 6 days by rhodamine B and Nile red staining based imaging analysis; assay type: functional; settings: bmmsc
[7] = Induction of chondrogenesis in human MSC assessed as maximum activity at 100 nM incubated for 6 days by rhodamine B and Nile red staining based imaging analysis relative to control; assay type: functional; settings: BMMSC, 144 h, time 6 day
[8] = molecular target: Dual specificity protein kinase CLK2 (Homo sapiens, UniProt P49760); test: Inhibition of recombinant CLK2 (unknown origin) using Ser/Thr 6 peptide as substrate incubated for 1 hr in presence of ATP by FRET assay
[9] = Induction of chondrogenesis in human MSC assessed as maximum activity at 30 nM incubated for 6 days by rhodamine B and Nile red staining based imaging analysis relative to control; assay type: functional; settings: BMMSC, 144 h, time 6 day
[10] = Induction of chondrogenesis in human MSC assessed as maximum activity at 10 nM incubated for 6 days by rhodamine B and Nile red staining based imaging analysis relative to control; assay type: functional; settings: BMMSC, 144 h, time 6 day

Chain of Dual specificity protein kinase CLK3 (P49761 whole entry): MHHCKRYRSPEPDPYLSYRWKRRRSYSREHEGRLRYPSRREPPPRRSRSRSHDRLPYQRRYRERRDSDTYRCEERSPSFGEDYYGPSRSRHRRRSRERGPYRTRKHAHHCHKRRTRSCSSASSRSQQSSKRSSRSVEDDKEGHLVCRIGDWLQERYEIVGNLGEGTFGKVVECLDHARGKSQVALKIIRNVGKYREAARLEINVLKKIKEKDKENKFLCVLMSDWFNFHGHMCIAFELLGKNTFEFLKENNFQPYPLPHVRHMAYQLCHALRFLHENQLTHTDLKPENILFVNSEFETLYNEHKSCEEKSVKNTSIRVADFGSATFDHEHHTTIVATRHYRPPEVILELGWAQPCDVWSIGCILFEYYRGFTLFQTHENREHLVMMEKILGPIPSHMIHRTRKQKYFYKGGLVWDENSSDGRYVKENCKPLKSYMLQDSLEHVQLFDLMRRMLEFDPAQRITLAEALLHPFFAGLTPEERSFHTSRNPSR
Chain of Dual specificity protein kinase CLK2 (P49760 whole entry): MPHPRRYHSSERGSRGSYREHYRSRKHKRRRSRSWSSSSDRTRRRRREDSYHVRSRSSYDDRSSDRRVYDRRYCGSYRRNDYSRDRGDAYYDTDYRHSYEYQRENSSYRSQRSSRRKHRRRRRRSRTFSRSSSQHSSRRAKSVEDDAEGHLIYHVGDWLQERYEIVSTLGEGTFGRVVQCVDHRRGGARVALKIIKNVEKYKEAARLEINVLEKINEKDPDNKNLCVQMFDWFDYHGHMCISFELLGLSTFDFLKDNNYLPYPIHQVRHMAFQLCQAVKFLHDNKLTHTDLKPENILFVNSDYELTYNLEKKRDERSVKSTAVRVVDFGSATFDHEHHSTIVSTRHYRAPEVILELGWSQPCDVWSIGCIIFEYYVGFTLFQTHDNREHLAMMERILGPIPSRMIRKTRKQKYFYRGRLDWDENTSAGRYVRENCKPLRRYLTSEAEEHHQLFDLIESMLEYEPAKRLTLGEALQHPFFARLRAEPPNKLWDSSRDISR

| SMILES | EC50 [1] | Imax [2] | EC50 [3] | EC50 [4] | EC50 [5] | EC50 [6] | Emax at 0.1 µM [7] | EC50 [8] | Emax at 0.03 µM [9] | Emax at 0.01 µM [10] |
| --- | --- | --- | --- | --- | --- | --- | --- | --- | --- | --- |
| COc1cncc(C#Cc2c[nH]nc2C(=O)Nc2ccc(OCCN3CCCC3)nc2)c1 | 1210 nM | 2.4% | 3000 nM | > 10000 nM | 19 nM | – | – | – | – | – |
| CC(C)CC(=O)Nc1cncc(-c2ccc3[nH]nc(-c4nc5c(-c6cccnc6)cncc5[nH]4)c3c2)c1 | 12 nM | 100% | 111 nM | – | 12 nM | 100 nM | 198% | – | – | – |
| O=C(Nc1cncc(-c2ccc3[nH]nc(-c4nc5c(-c6ccccn6)ccnc5[nH]4)c3n2)c1)c1ccccc1 | > 10000 nM | 67% | 5.1 nM | > 10000 nM | > 10000 nM | – | – | – | – | – |
| O=C(Nc1cncc(-c2ccc3[nH]nc(-c4nc5c(-c6cccc(F)c6)cccc5[nH]4)c3n2)c1)C1CC1 | 1080 nM | 70% | 0.2 nM | > 10000 nM | > 10000 nM | – | – | – | – | – |
| CCCC(=O)Nc1cncc(-c2cc3c(-c4nc5c(-c6ccsc6)cncc5[nH]4)n[nH]c3cn2)c1 | 61.5 nM | – | – | 21 nM | 8 nM | – | – | 3 nM | 42% | – |
| O=C(Nc1cc2cc(-c3cnco3)cnc2cn1)C1CCNCC1 | > 10000 nM | – | 35.8 nM | > 10000 nM | 40 nM | – | – | > 10000 nM | – | – |
| Cc1n[nH]c2ccc(-c3cncc(NC4CCNCC4)n3)cc12 | 256 nM | – | 1050 nM | 1420 nM | 9 nM | – | – | 1 nM | – | – |
| CN(C)Cc1cncc(-c2cnc3[nH]nc(-c4cc5c(-c6cccc(F)c6)nccc5[nH]4)c3c2)c1 | 1170 nM | – | – | 74 nM | 91 nM | 10 nM | – | 4 nM | – | 110% |
| Cc1n[nH]c2ccc(-c3cncc(O[C@H]4CCNC[C@H]4F)n3)cc12 | 834 nM | – | – | 1760 nM | 21 nM | 30 nM | – | 5 nM | 54.2% | – |
| O=C(N[C@H]1C[C@@H]1c1ccccc1)c1n[nH]c2ccc(-c3cncc(CN4CCCCC4)c3)cc12 | 1030 nM | – | 4 nM | 717 nM | 1 nM | – | – | 8 nM | – | – |
| O=C(N[C@H]1C[C@@H]1c1ccccc1)c1n[nH]c2ccc(-c3cccnc3)cc12 | 1390 nM | – | 1.6 nM | 6150 nM | 4 nM | – | – | 10 nM | – | – |
| O=C(CC1CCNCC1)Nc1cncc(-c2cnc3[nH]nc(-c4cc5c(-c6ccncc6)ccnc5[nH]4)c3c2)c1 | > 10000 nM | – | – | > 10000 nM | 21 nM | – | – | 11 nM | 26.7% | – |
| COc1cncc(C#Cc2c[nH]nc2C(=O)Nc2ccc(OC3CCN(C)CC3)nc2)c1 | 3570 nM | 3.4% | 3000 nM | > 10000 nM | 9 nM | – | – | – | – | – |
| CN1CCC(C(=O)Nc2cc3cc(-c4cnsc4)cnc3cn2)CC1 | > 10000 nM | – | 3000 nM | > 10000 nM | – | – | – | > 10000 nM | – | – |
| Cc1n[nH]c2ccc(-c3cncc(N[C@H](CO)Cc4cccc(C(F)(F)F)c4)n3)cc12 | 809 nM | – | 3000 nM | 3950 nM | 45 nM | – | – | 37 nM | – | – |
| CN1CCN(c2ccc(C(=O)N3CCN(c4cc(C(=O)Nc5cc6cc(-c7cnn(C)c7)ccc6cn5)ccn4)CC3)cn2)CC1 | – | – | 304 nM | – | – | – | – | 3 nM | – | – |
| CN(C)CCNc1cc(F)cc(-c2cccc3[nH]c(-c4n[nH]c5ccc(-c6cncc(CN7CCCCC7)c6)nc45)cc23)c1 | 1270 nM | – | – | 49 nM | 40 nM | – | – | 4 nM | 48.5% | – |
| O=C(Nc1cncc(-c2ccc3[nH]nc(-c4nc5c(-c6cccs6)cccc5[nH]4)c3n2)c1)C1CC1 | 3380 nM | 72% | 6.7 nM | > 10000 nM | > 10000 nM | – | – | – | – | – |
